Laboratory results from ChEMBL document CHEMBL1201862, “PubChem BioAssay data set” (2004).
Active and inactive are the calls of the source.

Assays:
Protein skinhead-1 = biological target: T1, Protein skinhead-1 (Caenorhabditis elegans, UniProt P34707); type: functional
T1 sequence (P34707 whole entry): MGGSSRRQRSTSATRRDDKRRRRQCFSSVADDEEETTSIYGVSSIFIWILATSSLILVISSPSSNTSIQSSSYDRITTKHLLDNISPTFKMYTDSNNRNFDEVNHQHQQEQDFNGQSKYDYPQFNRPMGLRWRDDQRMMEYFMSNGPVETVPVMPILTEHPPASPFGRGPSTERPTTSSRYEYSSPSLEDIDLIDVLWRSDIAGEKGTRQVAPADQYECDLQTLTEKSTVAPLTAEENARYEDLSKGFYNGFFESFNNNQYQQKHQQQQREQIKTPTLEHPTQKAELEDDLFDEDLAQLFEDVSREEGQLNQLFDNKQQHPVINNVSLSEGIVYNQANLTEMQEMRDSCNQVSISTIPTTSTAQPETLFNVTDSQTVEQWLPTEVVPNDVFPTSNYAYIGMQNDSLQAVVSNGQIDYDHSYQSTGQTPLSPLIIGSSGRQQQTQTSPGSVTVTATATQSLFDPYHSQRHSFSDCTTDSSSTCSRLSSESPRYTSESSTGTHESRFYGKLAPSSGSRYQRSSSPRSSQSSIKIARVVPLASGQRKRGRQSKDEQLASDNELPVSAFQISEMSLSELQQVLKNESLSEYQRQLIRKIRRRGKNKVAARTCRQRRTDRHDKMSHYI

[1] = biological target: Voltage-dependent T-type calcium channel subunit alpha-1H (Homo sapiens, UniProt O95180); type: functional;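 also: channel activity triggered by adding a high calcium stimulation buffer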
Sequence of Voltage-dependent T-type calcium channel subunit alpha-1H (O95180 whole entry): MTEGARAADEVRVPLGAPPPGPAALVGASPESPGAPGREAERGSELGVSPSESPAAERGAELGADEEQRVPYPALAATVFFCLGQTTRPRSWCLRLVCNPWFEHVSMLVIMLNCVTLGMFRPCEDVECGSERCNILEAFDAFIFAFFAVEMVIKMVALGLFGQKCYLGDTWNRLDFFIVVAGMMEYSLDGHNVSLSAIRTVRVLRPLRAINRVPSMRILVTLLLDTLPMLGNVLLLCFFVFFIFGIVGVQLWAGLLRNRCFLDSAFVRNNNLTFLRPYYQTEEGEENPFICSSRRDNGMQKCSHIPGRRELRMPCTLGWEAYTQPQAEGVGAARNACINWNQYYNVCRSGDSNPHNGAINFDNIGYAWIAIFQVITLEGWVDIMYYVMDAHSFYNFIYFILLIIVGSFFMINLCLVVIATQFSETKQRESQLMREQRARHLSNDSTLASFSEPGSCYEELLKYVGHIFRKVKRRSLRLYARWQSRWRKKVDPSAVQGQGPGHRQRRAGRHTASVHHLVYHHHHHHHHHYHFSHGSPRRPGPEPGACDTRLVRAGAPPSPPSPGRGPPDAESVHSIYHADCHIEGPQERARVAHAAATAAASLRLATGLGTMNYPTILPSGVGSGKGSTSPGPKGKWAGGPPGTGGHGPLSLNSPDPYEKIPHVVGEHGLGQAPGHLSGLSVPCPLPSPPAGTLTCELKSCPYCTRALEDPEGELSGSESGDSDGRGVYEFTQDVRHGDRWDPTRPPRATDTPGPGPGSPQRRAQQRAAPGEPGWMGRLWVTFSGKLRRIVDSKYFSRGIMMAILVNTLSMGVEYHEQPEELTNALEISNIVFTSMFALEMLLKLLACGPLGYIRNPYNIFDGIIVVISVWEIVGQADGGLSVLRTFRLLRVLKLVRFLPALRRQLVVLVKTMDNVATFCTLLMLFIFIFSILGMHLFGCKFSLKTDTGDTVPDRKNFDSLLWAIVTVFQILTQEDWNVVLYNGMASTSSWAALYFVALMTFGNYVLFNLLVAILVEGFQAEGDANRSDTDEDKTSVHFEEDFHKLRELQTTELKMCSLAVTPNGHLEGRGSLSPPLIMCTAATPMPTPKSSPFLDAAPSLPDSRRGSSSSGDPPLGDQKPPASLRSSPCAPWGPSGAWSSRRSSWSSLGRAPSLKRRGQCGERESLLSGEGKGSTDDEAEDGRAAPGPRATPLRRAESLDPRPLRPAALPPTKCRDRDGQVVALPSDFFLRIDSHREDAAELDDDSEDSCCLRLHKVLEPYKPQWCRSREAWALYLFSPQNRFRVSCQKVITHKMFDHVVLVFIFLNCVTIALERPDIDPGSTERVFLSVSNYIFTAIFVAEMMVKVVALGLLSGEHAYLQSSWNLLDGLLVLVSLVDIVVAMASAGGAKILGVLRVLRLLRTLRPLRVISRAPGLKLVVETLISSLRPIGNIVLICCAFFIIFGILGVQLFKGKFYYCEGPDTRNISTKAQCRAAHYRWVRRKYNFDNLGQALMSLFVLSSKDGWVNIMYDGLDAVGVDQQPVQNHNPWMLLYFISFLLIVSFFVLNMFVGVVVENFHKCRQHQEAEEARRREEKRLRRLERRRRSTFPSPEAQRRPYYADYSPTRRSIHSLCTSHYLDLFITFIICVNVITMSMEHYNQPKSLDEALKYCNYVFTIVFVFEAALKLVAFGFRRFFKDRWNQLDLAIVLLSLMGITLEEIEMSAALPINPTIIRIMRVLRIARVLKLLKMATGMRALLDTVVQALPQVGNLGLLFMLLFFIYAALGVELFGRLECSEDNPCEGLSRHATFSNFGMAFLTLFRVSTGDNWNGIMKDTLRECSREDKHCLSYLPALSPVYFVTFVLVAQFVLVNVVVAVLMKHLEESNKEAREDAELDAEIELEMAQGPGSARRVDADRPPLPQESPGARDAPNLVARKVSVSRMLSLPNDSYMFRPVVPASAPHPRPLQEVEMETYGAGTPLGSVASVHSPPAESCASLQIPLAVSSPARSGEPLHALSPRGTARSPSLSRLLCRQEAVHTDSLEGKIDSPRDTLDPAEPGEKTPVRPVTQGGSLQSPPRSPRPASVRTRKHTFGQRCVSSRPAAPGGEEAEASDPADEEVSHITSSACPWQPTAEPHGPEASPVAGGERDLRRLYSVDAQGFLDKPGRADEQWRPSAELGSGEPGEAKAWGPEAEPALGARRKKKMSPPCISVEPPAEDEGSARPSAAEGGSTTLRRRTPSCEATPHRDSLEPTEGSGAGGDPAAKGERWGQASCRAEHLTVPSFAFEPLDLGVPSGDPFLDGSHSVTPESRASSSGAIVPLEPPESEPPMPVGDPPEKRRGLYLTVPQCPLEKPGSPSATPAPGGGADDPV

[2] = biological target: T2, Adenosylmethionine-8-amino-7-oxononanoate aminotransferase (Mycobacterium tuberculosis, UniProt P9WQ81); assay: Mycobacterium tuberculosis BioA enzyme inhibitor Measured in Biochemical System Using Plate Reader - 2163-02_Inhibitor_Dose_CherryPick_Activity.; type: functional, Mycobacterium tuberculosis UT205
T2 sequence (P9WQ81 whole entry): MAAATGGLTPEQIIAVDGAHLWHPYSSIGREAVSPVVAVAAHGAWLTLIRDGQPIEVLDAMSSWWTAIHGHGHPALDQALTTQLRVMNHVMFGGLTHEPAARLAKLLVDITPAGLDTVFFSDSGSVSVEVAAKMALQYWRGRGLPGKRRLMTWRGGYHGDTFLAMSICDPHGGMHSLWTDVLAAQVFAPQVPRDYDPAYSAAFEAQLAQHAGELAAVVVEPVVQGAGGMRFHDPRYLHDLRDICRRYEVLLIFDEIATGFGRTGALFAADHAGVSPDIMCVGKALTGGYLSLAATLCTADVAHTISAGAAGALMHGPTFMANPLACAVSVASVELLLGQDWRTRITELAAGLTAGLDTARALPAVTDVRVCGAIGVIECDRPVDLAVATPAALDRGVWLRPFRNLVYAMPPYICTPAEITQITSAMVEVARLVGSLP

Prothrombin = Prothrombin (Homo sapiens, UniProt P00734); assay: Thrombin 1536 HTS Dose Response Confirmation. [Related pubchem assays: 1046 (Thrombin 1536 HTS; hits were confirmed in this assay)]; type: functional
[3] = biological target: T3, Ubiquitin-conjugating enzyme E2 N (Homo sapiens, UniProt P61088); type: functional;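 also: Dose-response confirmation in a TR-FRET assay detecting UBC13-driven polyubiquitin chain formation, inhibition measured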
T3 sequence (P61088 whole entry): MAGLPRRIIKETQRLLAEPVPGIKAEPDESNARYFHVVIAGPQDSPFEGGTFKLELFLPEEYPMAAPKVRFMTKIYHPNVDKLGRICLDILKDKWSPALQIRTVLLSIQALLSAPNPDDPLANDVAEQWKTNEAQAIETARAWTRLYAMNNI

[4] = Luminescence Cell-Based Dose Retest to Confirm Inhibitors of Cancer Stem Cells. [Related pubchem assays (depositor defined):AID2717, AID2721]; type: functional; details: Homo sapiens
[5] = MC4R antagonists, dose response, counter-screen for LGR2 antagonist project, cell-based, plate reader, cherry pick (AID 743444); type: functional;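 also: transfected HEK 293 cells stimulated with alpha-MSH peptide; potency of inhibitors of the alpha-MSH evoked signal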
[6] = LGR2 antagonists, dose response, cell-based, HEK293, CRE-luciferase reporter, cherry pick, set 2 (AID 743343); type: functional;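 also: transfected cells were stimulated with diluted bursicon conditioned medium after compound addition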
[7] = HEK293 cell cytotoxicity, dose response, cytotoxicity control, plate reader, cherry-picked samples (AID 743446); type: functional, cell-based
[8] = intracellular Trypanosoma cruzi inhibitors in host cells – cell-based, plate reader, cherry-pick samples, set 3, dose response (AID 651818); type: functional;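 also: compounds incubated with infected cells for about four days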
Fatty acid synthase [9] = biological target: T4, Fatty acid synthase (Homo sapiens, UniProt P49327); assay: FAS thioesterase domain inhibitors, dose response, biochemical, endpoint fluorescence intensity, uHTS hits (AID 624327); type: functional;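 also: fluorescence from hydrolysis of an O-methyl fluorescein acyl ester substrate by the enzyme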
T4 sequence (P49327 whole entry, the tested form may be a part): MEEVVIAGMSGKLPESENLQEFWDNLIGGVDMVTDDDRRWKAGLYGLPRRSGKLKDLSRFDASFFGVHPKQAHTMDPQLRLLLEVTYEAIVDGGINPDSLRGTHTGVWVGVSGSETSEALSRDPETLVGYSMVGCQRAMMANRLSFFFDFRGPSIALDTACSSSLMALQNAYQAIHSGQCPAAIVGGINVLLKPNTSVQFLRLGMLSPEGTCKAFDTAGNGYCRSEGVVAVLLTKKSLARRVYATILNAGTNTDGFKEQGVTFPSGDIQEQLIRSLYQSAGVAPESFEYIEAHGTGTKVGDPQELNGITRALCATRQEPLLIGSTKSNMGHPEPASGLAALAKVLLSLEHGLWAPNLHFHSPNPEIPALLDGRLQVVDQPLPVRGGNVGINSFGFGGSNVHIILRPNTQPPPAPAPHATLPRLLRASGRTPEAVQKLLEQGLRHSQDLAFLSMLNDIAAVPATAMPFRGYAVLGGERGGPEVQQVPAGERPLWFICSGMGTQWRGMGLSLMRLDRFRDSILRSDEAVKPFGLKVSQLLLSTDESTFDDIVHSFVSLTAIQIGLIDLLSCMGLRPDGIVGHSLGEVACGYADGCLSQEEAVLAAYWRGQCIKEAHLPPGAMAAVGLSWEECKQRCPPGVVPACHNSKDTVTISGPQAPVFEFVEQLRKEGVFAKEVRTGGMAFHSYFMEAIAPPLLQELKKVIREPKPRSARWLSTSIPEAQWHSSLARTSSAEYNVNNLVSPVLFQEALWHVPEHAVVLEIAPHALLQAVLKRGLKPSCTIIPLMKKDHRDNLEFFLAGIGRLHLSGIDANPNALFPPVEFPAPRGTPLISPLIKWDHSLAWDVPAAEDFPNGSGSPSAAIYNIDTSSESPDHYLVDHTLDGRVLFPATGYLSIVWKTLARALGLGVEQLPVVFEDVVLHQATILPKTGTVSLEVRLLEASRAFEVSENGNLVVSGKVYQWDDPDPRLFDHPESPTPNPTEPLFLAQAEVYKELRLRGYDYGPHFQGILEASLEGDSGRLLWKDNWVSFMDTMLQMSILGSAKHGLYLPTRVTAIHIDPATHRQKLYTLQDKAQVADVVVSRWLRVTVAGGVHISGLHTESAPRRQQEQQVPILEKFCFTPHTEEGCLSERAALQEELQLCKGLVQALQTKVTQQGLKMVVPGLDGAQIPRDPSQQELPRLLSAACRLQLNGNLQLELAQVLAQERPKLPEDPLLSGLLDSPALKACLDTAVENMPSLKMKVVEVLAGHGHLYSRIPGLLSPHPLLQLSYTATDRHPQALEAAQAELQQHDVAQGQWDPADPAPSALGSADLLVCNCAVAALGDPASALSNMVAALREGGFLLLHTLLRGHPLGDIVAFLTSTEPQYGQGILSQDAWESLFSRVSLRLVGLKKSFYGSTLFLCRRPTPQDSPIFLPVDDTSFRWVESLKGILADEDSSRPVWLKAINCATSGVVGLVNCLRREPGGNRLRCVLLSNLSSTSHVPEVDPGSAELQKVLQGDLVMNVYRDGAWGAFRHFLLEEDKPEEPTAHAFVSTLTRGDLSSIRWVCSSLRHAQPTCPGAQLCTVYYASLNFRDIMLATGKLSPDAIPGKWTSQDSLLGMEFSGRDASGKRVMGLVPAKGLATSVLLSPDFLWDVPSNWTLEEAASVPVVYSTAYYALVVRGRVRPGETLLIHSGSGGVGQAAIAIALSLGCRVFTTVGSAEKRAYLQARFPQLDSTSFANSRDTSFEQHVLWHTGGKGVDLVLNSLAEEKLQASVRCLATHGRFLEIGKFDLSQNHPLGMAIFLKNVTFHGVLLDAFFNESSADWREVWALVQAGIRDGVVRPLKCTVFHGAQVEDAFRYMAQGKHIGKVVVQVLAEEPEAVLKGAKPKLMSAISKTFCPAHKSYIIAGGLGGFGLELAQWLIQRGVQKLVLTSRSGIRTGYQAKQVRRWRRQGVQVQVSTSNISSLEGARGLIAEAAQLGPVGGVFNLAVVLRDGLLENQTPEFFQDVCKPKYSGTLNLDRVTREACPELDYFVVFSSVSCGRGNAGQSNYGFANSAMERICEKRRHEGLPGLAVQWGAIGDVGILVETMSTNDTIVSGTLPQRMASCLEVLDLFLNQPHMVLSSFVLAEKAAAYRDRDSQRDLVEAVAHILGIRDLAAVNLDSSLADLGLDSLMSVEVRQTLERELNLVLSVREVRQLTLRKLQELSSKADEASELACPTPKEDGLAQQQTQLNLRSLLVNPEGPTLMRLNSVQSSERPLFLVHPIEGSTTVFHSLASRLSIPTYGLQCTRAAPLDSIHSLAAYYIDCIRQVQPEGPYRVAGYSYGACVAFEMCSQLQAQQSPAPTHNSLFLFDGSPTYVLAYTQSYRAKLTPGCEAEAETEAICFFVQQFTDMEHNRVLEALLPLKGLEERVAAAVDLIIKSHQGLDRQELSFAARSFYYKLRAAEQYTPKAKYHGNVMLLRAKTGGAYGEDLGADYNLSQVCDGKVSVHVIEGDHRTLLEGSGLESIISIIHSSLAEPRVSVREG

Fatty acid synthase [10] = biological target: T4, Fatty acid synthase; assay: FAS thioesterase domain inhibitors, dose response, biochemical, kinetic fluorescence intensity (AID 624326); type: functional;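 also: rate of fluorescence rise from hydrolysis of a fluorogenic O-methyl fluorescein ester substrate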
Caspase-6 = biological target: T5, Caspase-6 (Homo sapiens, UniProt P55212); assay: human caspase-6 inhibitors, dose response, biochemical, VEID-R110 fluorescence, cherry-pick (AID 720632)
T5 sequence (P55212 whole entry): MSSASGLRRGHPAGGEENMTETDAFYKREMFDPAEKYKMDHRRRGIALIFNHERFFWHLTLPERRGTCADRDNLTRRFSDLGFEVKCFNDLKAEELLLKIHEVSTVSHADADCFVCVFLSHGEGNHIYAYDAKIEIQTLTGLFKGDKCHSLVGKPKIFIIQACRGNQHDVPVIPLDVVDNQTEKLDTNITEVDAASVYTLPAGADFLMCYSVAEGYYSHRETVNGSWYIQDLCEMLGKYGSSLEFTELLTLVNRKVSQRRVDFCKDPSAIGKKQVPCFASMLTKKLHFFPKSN

[11] = biological target: T6, Carboxy-terminal domain RNA polymerase II polypeptide A small phosphatase 1 (Homo sapiens, UniProt Q9GZU7); assay: inhibitors of CTDSP1, concentration-response testing, biochemical assay, absorbance-based, actives from ultra-high-throughput screening (AID 540297); type: functional
T6 sequence (Q9GZU7 whole entry): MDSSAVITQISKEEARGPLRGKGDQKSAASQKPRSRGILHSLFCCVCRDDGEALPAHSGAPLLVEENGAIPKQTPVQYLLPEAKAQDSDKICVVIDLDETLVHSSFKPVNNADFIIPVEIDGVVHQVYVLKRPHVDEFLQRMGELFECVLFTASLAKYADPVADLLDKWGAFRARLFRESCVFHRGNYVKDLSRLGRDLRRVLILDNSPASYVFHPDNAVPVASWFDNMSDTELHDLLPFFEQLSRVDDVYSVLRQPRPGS

[12] = inhibitors of HIV Env-driven cell fusion, dose response, cherry-pick (AID 652057); type: functional, cell-based
[13] = inhibitors of clade B AD8 Env fusion, dose response, cell-based, cherry-pick (AID 652062); type: functional;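 also: luciferase signal from cell-cell fusion driven by HIV-1 clade B AD8 Env; potency is for inhibitors of fusion seen as a drop in luminescence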
[14] = ZM109 Env clade C HIV-1 fusion inhibitors, dose response, HeLa effector, CEM target cells, luciferase, cherry-pick (AID 652058); type: functional, cell-based
[15] = off-target signal loss in HeLa-CEM21 co-culture – HeLa F-luc CTL cells, cherry-picked, counter-screen for HIV-1 Env fusion inhibitor project, dose response (AID 652040); type: functional, cell-based;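 also: potency for signal decrease marking cytotoxic or nonspecific inhibition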
BJ [16] = assay: cells; type: functional, cell-based; details: Homo sapiens
BJ [17] = assay: cytotoxicity toward BJ-TERT-LT-ST fibroblasts, dose response, cell-based, RAS-independent, luminescence (AID 1935); type: functional; details: Homo sapiens;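 also: BJ fibroblasts immortalized with TERT plus LT and ST oncogenes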
BJ [18] = assay: cytotoxicity toward BJ-TERT fibroblasts, dose response, cell-based, RAS-independent, luminescence (AID 1933); type: functional; details: Homo sapiens
[19] = cytotoxicity toward DRD oncogenic fibroblasts, dose response, cell-based, non-viral oncogenic, luminescence (AID 1934); type: functional; details: Homo sapiens
[20] = NIH-3T3 fibroblast cytotoxicity, dose response, cytotoxicity control, cell-based, fluorescence, Alamar Blue, secondary assay (AID 2327); type: functional;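 also: NIH-3T3 mouse fibroblasts cultured with fluconazole at 8 µg/mL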
[21] = C. albicans growth with fluconazole, confirmation, fluorescence, retest (AID 2467); type: functional, cell-based
[22] = inhibitors of firefly luciferase expression or activity, dose response, H4 neuroglioma cells, luminescence (AID 1990); type: functional, cell-based
[23] = Luminescence Cell-Based Dose Response HTS to Identify Inhibitors of 5'UTR Stem-Loop Driven Prion Protein mRNA Translation in H4 Neuroglioblastoma Cells. [Related pubchem assays: 1827 (Project Summary), 1813 (Primary HTS)]; type: functional
[24] = inhibitors of SNCA 5'UTR-driven reporter translation, confirmation, H4 neuroglioma cells, luminescence (AID 1988); type: functional, cell-based
[25] = Luminescence-based cell-based high throughput dose response assay to identify activators of the DAF-12 from the parasite S. stercoralis (ssDAF-12).; type: functional

## O=C(CSc1ccc(Cl)cc1)N1CCN(c2ncc(C(F)(F)F)cc2Cl)CC1
Protein skinhead-1
  IC50: > 100 µM (inactive)
[1]
  EC50: 5.86 µM (active)

## COc1ccc(-c2nc3cnccn3c2Nc2ccc3c(c2)OCO3)cc1
[2]
  AC50: 0.702 µM (active)

## Cc1nc2sc(C(c3ccc(Cl)cc3)N3CCN(c4ccccc4F)CC3)c(O)n2n1 (centres undefined)
[2]
  AC50: 1.69 µM (active)

## CCCc1nc(NC(C)=O)c(C#N)c(-c2ccco2)c1CC
Prothrombin
  IC50: > 50 µM (not active)

## CCC(C)(C)NC(=O)CN(C(=O)c1snc(C(N)=O)c1N)c1ccc2c(c1)OCCO2
[3]
  IC50: > 20 µM (inactive)

## CCN(Cc1ccccc1)C(=O)CCc1nc(-c2ccc(C)cc2)no1
[1]
  EC50: 4.8 µM (active)

## COc1cc(OC)cc(-c2sc3ccc(OC)cc3c2C#CC2(N)CCCCC2)c1
[3]
  IC50: > 20 µM (inactive)
[4]
  AC50: 2.96 µM (active)

## CCOc1ccc(N(C(=O)c2snc(C(N)=O)c2N)C(C(=O)NCC2CCCO2)c2ccc(C)o2)cc1 (centres undefined)
[3]
  IC50: > 20 µM (inactive)

## Clc1ccc(OCc2nc(-c3ccccn3)no2)c(Br)c1
[5]
  AC50: 10.6 µM (active)
[6]
  AC50: 6.73 µM (active)
[7]
  AC50: 27.6 µM (active)

## C[C@H]1CN([C@@H](C)CO)C(=O)c2cccc(NC(=O)Nc3ccccc3)c2O[C@H]1CN(C)C(=O)Nc1ccc2c(c1)OCO2
[8]
  AC50: 20 µM (inactive)

## C[C@@H]1CN([C@H](C)CO)C(=O)c2cc(NC(=O)Nc3ccc4c(c3)OCO4)ccc2O[C@@H]1CN(C)Cc1ccc(-c2ccccc2)cc1
[8]
  AC50: 2.72 µM (active)

## NC(=S)N=Nc1c(O)n(CCCl)c2ccc(Br)cc12
[3]
  IC50: > 20 µM (inactive)

## O=C(NCc1ccc(F)cc1)C(C(=O)NCc1ccc(F)cc1)c1ncc(C(F)(F)F)cc1Cl
Fatty acid synthase [9]
  IC50: 7.79 µM (active)
Fatty acid synthase [10]
  IC50: 11.8 µM (active)

## COc1ccccc1N1CCN(CC(O)COc2cccc3ccccc23)CC1 (centres undefined) [NAFTOPIDIL]
[1]
  EC50: 3.72 µM (active)

## O=C(NNC(=O)c1ccccc1Br)c1ccc2nc[nH]c2c1
Caspase-6
  AC50: 23.6 µM (active)
[11]
  IC50: 7.34 µM (active)

## O=C(COC(=O)c1cc([N+](=O)[O-])ccc1N1CCOCC1)c1ccc(F)cc1
Fatty acid synthase [9]
  IC50: 5.45 µM (active)
Fatty acid synthase [10]
  IC50: 9.03 µM (active)

## C[C@H](CO)N1C[C@H](C)[C@H](CN(C)Cc2ccc(Cl)c(Cl)c2)Oc2c(NC(=O)c3nc4ccccc4s3)cccc2C1=O
[8]
  AC50: 6.38 µM (active)

## O=[N+]([O-])c1ccc(Sc2n[nH]c(-c3ccc(Cl)cc3Cl)n2)nc1
Fatty acid synthase [9]
  IC50: 7.15 µM (active)
Fatty acid synthase [10]
  IC50: 8.25 µM (active)

## C[C@@H]1CN([C@@H](C)CO)C(=O)c2cccc(NS(=O)(=O)c3ccc(Cl)cc3)c2O[C@@H]1CN(C)Cc1ccc(Oc2ccccc2)cc1
[8]
  AC50: 4.87 µM (active)

## CC(=O)CSc1nnc(CSc2ncccn2)n1C1CCCCC1
[2]
  AC50: 13.9 µM (active)

## C[C@@H]1CN([C@@H](C)CO)C(=O)Cc2cc(NC(=O)Nc3ccccc3)ccc2O[C@@H]1CN(C)Cc1ccc(C(=O)Nc2ccccc2N)cc1
[8]
  AC50: 2.04 µM (active)

## O=C(CSc1nnc(-c2ccncc2)n1-c1ccc(Cl)cc1)NCc1cccs1
[2]
  AC50: 9.86 µM (active)

## CCOC(=O)c1c(CSc2ccsc2)n(C)c2cc(Br)c(O)c(CN(C)C)c12
[12]
  AC50: 1.3 µM (active)
[13]
  AC50: 4.04 µM (active)
[14]
  AC50: 2.34 µM (active)
[15]
  AC50: 2.45 µM (active)

## CCOc1cc(C2C(C#N)=C(N)OC(C)=C2C(C)=O)c(Br)c(Br)c1OC(C)C (centres undefined)
BJ [16]
  EC50: 14 µM (inconclusive)
BJ [17]
  EC50: 2.72 µM (inconclusive)
BJ [18]
  EC50: 2.17 µM (active)
[19]
  EC50: 3.46 µM (active)

## O=C(C[n+]1cc(-c2ccc(Cl)cc2)n2c1CCC2)N1c2ccccc2Sc2ccccc21
[2]
  AC50: 6.34 µM (active)
[20]
  EC50: > 160 µM (inconclusive)
[21]
  EC50: > 38 µM (not active)

## CCOc1ccc(-n2c(SCc3ccc([N+](=O)[O-])cc3)nnc2-c2ccccc2)cc1
Fatty acid synthase [9]
  IC50: 6.83 µM (active)
[22]
  EC50: 15.5 µM (active)
Fatty acid synthase [10]
  IC50: 5.2 µM (active)
[23]
  EC50: 69.4 µM (active)
[24]
  EC50: 24.9 µM (active)

## COc1ccc(NC(=O)Nc2ccc3c(c2)CC(=O)N([C@@H](C)CO)C[C@H](C)[C@@H](CN(C)Cc2ccc(C(F)(F)F)cc2)O3)cc1
[8]
  AC50: 5.55 µM (active)

## Nc1nc(=O)n(C2CC(O)C(CO)O2)cc1Cl (centres undefined)
[25]
  IC50: > 67.6 µM (inactive)

## CON(C)c1nc(OCCNC(=O)OCc2ccc(Cl)cc2C)nc(N(C)C)n1
[12]
  AC50: 1.29 µM (active)
[13]
  AC50: 0.357 µM (active)
[14]
  AC50: 2.22 µM (active)
[15]
  AC50: 2.32 µM (active)

## O=C(Nc1cccc(F)c1)C1CCN(c2nnnn2-c2ccccc2)CC1
[1]
  EC50: 53.6 µM (active)

## O=C(CSc1ncn(-c2ccccc2)n1)Nc1ccc(Br)cn1
[1]
  EC50: 5.67 µM (active)
